Data taken from US20230416248A1, “COMPOUNDS AND USES THEREOF” (Foghorn Therapeutics Inc., priority 2020, published 2023).
pIC50: −log10 of the molar value. Where two headings read alike, the source gives them in different places.

Assays:
[1] = molecular target: T1, BRM (Homo sapiens, UniProt P51531); experiment: ATPase catalytic activity of BRM, ADP-Glo in vitro biochemical assay; details: for pIC50: 30 nM BRM, 400 μM ATP; for Ratio* (BRG1 IC50 (μM) divided by BRM IC50 (μM)): selectivity ratio BRG1 IC50 / BRM IC50
T1 construct: made in house; host or cells: High Five insect cells
T1 sequence (P51531 whole entry): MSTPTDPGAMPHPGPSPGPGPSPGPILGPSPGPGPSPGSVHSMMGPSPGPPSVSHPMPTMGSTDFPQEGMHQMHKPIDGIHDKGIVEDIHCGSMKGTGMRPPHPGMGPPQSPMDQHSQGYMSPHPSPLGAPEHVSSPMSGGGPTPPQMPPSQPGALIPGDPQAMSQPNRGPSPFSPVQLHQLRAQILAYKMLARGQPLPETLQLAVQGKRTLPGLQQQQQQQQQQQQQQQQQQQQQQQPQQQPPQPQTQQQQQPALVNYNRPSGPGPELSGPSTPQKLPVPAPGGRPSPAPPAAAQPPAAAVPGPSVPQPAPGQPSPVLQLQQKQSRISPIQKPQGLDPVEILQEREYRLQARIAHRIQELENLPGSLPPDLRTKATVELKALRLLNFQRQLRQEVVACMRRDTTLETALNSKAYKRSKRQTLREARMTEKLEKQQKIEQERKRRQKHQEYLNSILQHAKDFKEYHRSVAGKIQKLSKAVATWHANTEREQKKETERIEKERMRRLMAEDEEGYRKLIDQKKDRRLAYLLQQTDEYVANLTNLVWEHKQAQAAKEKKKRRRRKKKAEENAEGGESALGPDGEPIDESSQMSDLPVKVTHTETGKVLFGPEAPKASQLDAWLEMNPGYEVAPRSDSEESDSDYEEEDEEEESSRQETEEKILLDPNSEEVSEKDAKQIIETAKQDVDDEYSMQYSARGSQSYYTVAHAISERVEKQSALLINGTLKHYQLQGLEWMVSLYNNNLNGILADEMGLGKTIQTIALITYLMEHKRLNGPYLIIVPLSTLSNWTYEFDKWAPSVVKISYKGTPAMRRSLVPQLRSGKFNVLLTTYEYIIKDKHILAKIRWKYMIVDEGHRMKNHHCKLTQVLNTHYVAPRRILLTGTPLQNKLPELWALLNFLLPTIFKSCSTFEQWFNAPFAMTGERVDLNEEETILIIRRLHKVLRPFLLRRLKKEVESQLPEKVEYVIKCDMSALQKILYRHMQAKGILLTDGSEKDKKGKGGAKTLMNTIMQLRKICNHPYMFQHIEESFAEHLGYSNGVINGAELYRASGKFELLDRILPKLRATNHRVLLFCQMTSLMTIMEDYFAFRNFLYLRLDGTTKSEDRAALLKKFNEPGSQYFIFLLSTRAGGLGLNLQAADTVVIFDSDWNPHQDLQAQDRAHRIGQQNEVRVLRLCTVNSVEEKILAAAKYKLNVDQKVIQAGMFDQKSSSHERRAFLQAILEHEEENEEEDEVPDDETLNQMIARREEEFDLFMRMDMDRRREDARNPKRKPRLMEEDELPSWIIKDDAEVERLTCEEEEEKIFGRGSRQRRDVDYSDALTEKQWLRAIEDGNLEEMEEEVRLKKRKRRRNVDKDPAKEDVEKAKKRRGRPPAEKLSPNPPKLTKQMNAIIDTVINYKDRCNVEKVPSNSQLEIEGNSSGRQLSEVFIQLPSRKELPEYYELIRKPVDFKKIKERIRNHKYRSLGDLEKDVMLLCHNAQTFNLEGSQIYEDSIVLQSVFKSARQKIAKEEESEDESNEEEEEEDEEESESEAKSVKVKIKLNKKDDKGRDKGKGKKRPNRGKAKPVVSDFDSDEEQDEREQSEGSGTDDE
Method in brief: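 ADP-Glo luminescence, after depletion of leftover ATP and conversion of ADP, reported the activity. The 1 h room-temperature reaction held 400 μM ATP, 20 nM salmon sperm DNA and 30 nM BRM in 20 mM Tris pH 8, 20 mM MgCl2, 50 mM NaCl, 0.1% Tween-20, 1 mM DTT.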

[2] = molecular target: T2, BRG-1 (Homo sapiens, UniProt P51532); experiment: ATPase catalytic activity of BRG-1, ADP-Glo in vitro biochemical assay; details: 30 nM BRG-1, 400 μM ATP, read-out: BRG1 IC50
T2 construct: made in house; host or cells: High Five insect cells
T2 sequence (P51532 whole entry): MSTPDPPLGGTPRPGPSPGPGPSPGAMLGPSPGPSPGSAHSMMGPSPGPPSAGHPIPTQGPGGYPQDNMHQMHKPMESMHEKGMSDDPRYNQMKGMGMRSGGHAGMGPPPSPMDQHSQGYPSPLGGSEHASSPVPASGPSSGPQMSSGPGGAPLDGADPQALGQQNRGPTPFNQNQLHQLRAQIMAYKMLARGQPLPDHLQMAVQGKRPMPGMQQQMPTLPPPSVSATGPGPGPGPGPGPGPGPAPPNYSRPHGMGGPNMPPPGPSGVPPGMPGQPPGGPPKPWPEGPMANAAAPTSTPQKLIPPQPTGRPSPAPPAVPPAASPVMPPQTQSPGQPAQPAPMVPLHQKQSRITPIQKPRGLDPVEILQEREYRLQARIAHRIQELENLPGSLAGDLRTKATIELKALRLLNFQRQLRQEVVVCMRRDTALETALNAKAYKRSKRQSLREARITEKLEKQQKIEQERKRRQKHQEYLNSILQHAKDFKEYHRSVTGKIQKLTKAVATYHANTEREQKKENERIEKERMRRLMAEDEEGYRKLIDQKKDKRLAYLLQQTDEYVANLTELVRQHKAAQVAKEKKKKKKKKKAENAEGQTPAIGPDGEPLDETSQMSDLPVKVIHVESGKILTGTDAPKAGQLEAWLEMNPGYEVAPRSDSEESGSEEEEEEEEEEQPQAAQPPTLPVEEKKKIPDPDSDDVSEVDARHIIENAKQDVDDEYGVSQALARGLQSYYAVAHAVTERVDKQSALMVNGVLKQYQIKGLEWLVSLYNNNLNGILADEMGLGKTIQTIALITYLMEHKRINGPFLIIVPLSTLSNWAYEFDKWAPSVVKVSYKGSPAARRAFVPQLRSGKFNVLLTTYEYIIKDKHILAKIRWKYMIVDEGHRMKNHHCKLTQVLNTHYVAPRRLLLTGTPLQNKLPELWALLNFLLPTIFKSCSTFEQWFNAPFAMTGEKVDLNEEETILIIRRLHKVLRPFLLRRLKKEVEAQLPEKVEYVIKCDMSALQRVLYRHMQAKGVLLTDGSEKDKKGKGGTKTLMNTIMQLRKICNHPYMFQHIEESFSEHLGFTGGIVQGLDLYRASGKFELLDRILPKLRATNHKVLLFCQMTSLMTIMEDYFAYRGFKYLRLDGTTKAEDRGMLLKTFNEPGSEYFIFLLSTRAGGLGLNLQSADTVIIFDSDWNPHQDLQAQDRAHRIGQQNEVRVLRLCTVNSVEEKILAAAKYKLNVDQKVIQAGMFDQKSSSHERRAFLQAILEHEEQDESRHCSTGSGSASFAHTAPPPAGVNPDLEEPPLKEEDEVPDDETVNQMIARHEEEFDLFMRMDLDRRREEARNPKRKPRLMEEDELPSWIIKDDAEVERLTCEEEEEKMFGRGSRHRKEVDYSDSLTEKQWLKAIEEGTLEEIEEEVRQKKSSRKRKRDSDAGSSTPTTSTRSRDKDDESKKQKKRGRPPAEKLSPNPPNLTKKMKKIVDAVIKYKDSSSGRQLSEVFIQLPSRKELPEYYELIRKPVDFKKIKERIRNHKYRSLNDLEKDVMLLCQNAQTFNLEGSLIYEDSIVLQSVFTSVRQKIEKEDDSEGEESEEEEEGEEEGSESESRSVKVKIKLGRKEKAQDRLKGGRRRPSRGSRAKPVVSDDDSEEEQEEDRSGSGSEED
Method in brief: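 Once the ATPase reaction finished, leftover ATP was depleted over 40 minutes at room temperature. Generated ADP was next turned back into ATP during a 60-minute room-temperature step. Luciferase-derived light was then measured.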

[3] = ATPase catalytic activity, ADP-Glo

SMILES	pIC50 [1, 3]	Ratio* ([1]; ratio of BRG1 IC50 to BRM IC50)	pIC50 [2, 3]	pIC50 ([1]; ADP-Glo ATPase assay)	Ratio* (BRG1 IC50 (μM) divided by BRM IC50 (μM)) [1]	pIC50 ([2]; ADP-Glo ATPase assay)	Ratio* ([1]; ratio BRG1 IC50 / BRM IC50)
C[C@@H]1CN(c2cccc(-c3ccc4cnc(CNC(=O)c5cc(F)c6c(c5)S(=O)(=O)CCO[C@@H]6C)cc4n3)n2)C[C@H](C)O1 [Compound 516]	7.91	6.98	7.07				
COc1ccccc1-c1ccc2cnc(CNC(=O)c3ccc4c(c3)S(=O)(=O)CCOC4)cc2n1 [Compound 254]				7.27	9.53	6.29	
CO[C@H]1CCCN(c2cccc(-c3ccc4cnc(CNC(=O)c5ccc6c(c5)S(=O)(=O)CCOC6)cc4n3)n2)C1 [Compound 93]				8.02	9.74	7.03	
C[C@H]1CCc2ccc(-c3ccc4cnc(CNC(=O)c5ccc6c(c5)S(=O)(=O)CCOC6)cc4n3)nc2N1C [Compound 468]	7.60	7.67	6.72				
O=C(NCc1cc2nc(N3CCCc4ccc(OCC5CCO5)cc43)ccc2cn1)c1ccc2c(c1)S(=O)(=O)CCOC2 (centres unmarked) [Compound 735]				8.09		6.96	13.49
O=C(NCc1cc2nc(N3CCCc4ccc(N5CCC5)nc43)ccc2cn1)c1ccc2c(c1)S(=O)(=O)CCOC2 [Compound 566]	7.49	20.83	6.17				
CO[C@@H]1CCS(=O)(=O)c2cc(C(=O)NCc3cc4nc(-c5cccc(N6C[C@@H](C)O[C@@H](C)C6)n5)ccc4cn3)ccc2C1 [Compound 446]	7.95	2.83	7.50				
C[C@@]1(F)CCCN(c2cccc(-c3ccc4cnc(CNC(=O)c5ccc6c(c5)S(=O)(=O)CCOC6)cc4n3)n2)C1 [Compound 318]	8.03	8.53	7.09				
COC[C@H]1CCCN(c2cccc(-c3ccc4cnc(CNC(=O)c5ccc6c(c5)S(=O)(=O)CCOC6)cc4n3)n2)C1 [Compound 622]	7.56	3.98	6.96				
O=C(NCc1cc2nc(-c3cccc(N4CC[C@H](F)C4)n3)ccc2cn1)c1ccc2c(c1)S(=O)(=O)CCOC2 [Compound 224]				7.59	14.09	6.44	
O=C(NCc1cc2nc(N3CCCc4cc(C5CC5)ncc43)ccc2cn1)c1ccc2c(c1)S(=O)(=O)CCOC2 [Compound 725]				7.57		6.53	10.95
COCCN(C)c1cccc(-c2ccc3cnc(CNC(=O)c4ccc5c(c4)S(=O)(=O)CCOC5)cc3n2)n1 [Compound 145]				8.44	15.77	7.24	
C[C@@H]1CN(c2ccc(F)c(-c3ccc4cnc(CNC(=O)c5ccc6c(c5)S(=O)(=O)CCOC6)cc4n3)n2)C[C@H](C)O1 [Compound 166]				7.77	12.29	6.69	
C[C@@H]1CN(c2cccc(-c3ccc4cnc(CNC(=O)c5ccc6c(c5)S(=O)(=O)CCCO6)cc4n3)n2)C[C@H](C)O1 [Compound 53]				7.93		6.93	
O=C(NCc1cc2nc(-c3cccc(N4CC(C5(F)COC5)C4)n3)ccc2cn1)c1ccc2c(c1)S(=O)(=O)CCOC2 [Compound 797]				7.73		6.72	10.11
O=C(NCc1cc2nc(N3CCCc4ccc([C@@H]5CC5(F)F)nc43)ccc2cn1)c1ccc2c(c1)S(=O)(=O)CCOC2 [Compound 689]	7.40	21.94	6.05				
O=C(NCc1cc2nc(-c3cccc(OCC4CCC4)n3)ccc2cn1)c1ccc2c(c1)S(=O)(=O)CCOC2 [Compound 375]	7.37	14.74	6.20				
O=C(NCc1cc2nc(-c3cccc(N4CCC4)c3)ccc2cn1)c1ccc2c(c1)S(=O)(=O)CCOC2 [Compound 255]				7.44	13.37	6.31	
O=C(NCc1cc2nc(N3CCCc4ccc(OC5COC5)cc43)ccc2cn1)c1ccc2c(c1)S(=O)(=O)CCOC2 [Compound 692]	8.22	14.09	7.07				

SMILES	pIC50 [1, 3]	Ratio* ([1]; ratio of BRG1 IC50 to BRM IC50)	pIC50 [2, 3]	pIC50 ([1]; ADP-Glo ATPase assay)	Ratio* (BRG1 IC50 (μM) divided by BRM IC50 (μM)) [1]	pIC50 ([2]; ADP-Glo ATPase assay)	Ratio* ([1]; ratio BRG1 IC50 / BRM IC50)
O=C(NCc1cc2nc(N3CCC4(CCC4)c4cccnc43)ccc2cn1)c1ccc2c(c1)S(=O)(=O)CCOC2 [Compound 723]				7.40		6.18	16.58
CO[C@@H](C)COc1ccc2c(c1)N(c1ccc3cnc(CNC(=O)c4ccc5c(c4)S(=O)(=O)CCOC5)cc3n1)CCC2 [Compound 706]				8.30		7.33	9.39
Cc1cnc2c(c1)OCCN2c1ccc2cnc(CNC(=O)c3cc(C)c4c(c3)S(=O)(=O)CCOC4)cc2n1 [Compound 549]	8.14	17.80	6.88				
O=C(NCc1cc2nc(-c3cncc(C4CC4)n3)ccc2cn1)c1ccc2c(c1)[S+]([O-])CCOC2 (centres unmarked) [Compound 299]				6.06	7.32	5.20	
O=C(NCc1cc2nc(N3CCCc4c(C(F)F)ccnc43)ccc2cn1)c1ccc2c(c1)S(=O)(=O)CCOC2 [Compound 521]	7.22	7.10	6.37				
O=C(NCc1cc2nc(-c3cccc(OCC4CC4)c3)ccc2cn1)c1ccc2c(c1)S(=O)(=O)CCOC2 [Compound 820]				7.02		5.86	14.31
C[C@@H]1CN(c2cccc(-c3ccc4cnc(CNC(=O)c5cc(Cl)c6c(c5)S(=O)(=O)CCO[C@@H]6C)cc4n3)n2)C[C@H](C)O1 [Compound 553]	7.69	22.48	6.34				
O=C(NCc1cc2nc(N3CCCC4CCCC43)ccc2cn1)c1ccc2c(c1)S(=O)(=O)CCOC2 (centres unmarked) [Compound 652]	6.35	7.21	5.50				
C[C@@H]1CN(c2cncc(-c3ccc4cnc(CNC(=O)c5ccc(C(F)F)c(S(C)(=O)=O)c5)cc4n3)n2)C[C@H](C)O1 [Compound 163]				7.68	12.71	6.58	
CC1(c2ccc3c(n2)N(c2ccc4cnc(CNC(=O)c5ccc6c(c5)S(=O)(=O)CCOC6)cc4n2)CCO3)CC1 [Compound 713]				7.34		6.01	21.51
COCCN1CCOc2c(-c3ccc4cnc(CNC(=O)c5ccc6c(c5)S(=O)(=O)CCOC6)cc4n3)cccc21 [Compound 172]				8.04	11.42	6.98	
Cc1ccnc2c1N(C)CCN2c1ccc2cnc(CNC(=O)c3ccc4c(c3)S(=O)(=O)CCOC4)cc2n1 [Compound 681]	7.48	9.53	6.50				
C[C@H]1COCc2ccc(C(=O)NCc3cc4nc(-c5cccc(C6CC6)n5)ccc4cn3)cc2S1(=O)=O [Compound 331]	7.87	30.98	6.38				
COC[C@H](C)N(C)c1cccc(-c2ccc3cnc(CNC(=O)c4ccc5c(c4)S(=O)(=O)CCOC5)cc3n2)n1 [Compound 70]				7.43	11.02	6.39	
O=C(NCc1cc2nc(-c3cccc(OCC4CC4(F)F)n3)ccc2cn1)c1ccc2c(c1)S(=O)(=O)CCOC2 (centres unmarked) [Compound 391]	7.54	15.87	6.34				
O=C(NCc1cc2nc(N3CCOc4ccc(C5CCC5)nc43)ccc2cn1)c1ccc2c(c1)S(=O)(=O)CCOC2 [Compound 722]				8.06		6.14	81.47
CN1CCN(c2ccc3cnc(CNC(=O)c4ccc5c(c4)S(=O)(=O)CCOC5)cc3n2)c2ccccc21 [Compound 512]	7.54	7.58	6.66				
CS(=O)(=O)c1cc(C(=O)NCc2cc3nc(-c4cccc(N5CC[C@H]6OCC[C@@H]6C5)n4)ccc3cn2)ccc1C(F)F [Compound 124]				7.42	14.29	6.27	
